# Patent publication US20230172884A1, “USE OF BUCILLAMINE IN THE TREATMENT OF INFECTIOUS DISEASES” (Revive Therapeutics Ltd, priority 2020, published 2023)
# Experiments:
# [1] = test system: COVID-19; assay: Phase 3 multi-center, randomized, double-blind, placebo-controlled study of Bucillamine in patients with mild-moderate COVID-19; assay type: in vivo, human; settings: Bucillamine 100 mg or 200 mg TID for up to 14 days, preliminary indications to date
# Experimental: A Phase 3 confirmatory clinical trial titled, “A Multi-Center, Randomized, Double-Blind, Placebo-Controlled Study of Bucillamine in Patients with Mild-Moderate COVID-19”, was undertaken to enroll up to 1,000 patients randomized 1:1:1 to receive Bucillamine 100 mg three times a day (“TID”), Bucillamine 200 mg TID or placebo TID for up to 14 days. The primary objective is to compare the frequency of hospitalization or death in patients with mild-moderate COVID-19 receiving Bucillamine therapy with those receiving placebo. The primary endpoint is the proportion of patients meeting a composite endpoint of hospitalization or death from the time of the first dose through Day 28 following randomization. Efficacy was assessed by comparing clinical outcomes (death or hospitalization), disease severity using the 8-category NIAID COVID ordinal scale, supplemental oxygen use, and progression of COVID-19 between patients receiving standard-of-care plus Bucillamine (high dose and/or low dose) and patients receiving standard-of-care plus placebo.
# [2] = versus N-acetylcysteine (NAC); cited from earlier work
# [3] = statement with literature references 8, 9; cited from earlier work
# [4] = not told; cited from earlier work
smiles,measurement,setting,value
"CC(C)(S)C(=O)NC(CS)C(=O)O (stereo not drawn) [Bucillamine, N-(mercapto-2-methylpropionyl)-l-cysteine]",hospitalization or death from COVID-19 (composite clinical outcome),[1],none of the patients receiving Bucillamine in the trial have to date been hospitalised for COVID-19 or have died from COVID-19
same,potency as a thiol donor in vivo relative to NAC,[2],16 fold
same,toxicity,[3],non-toxic
same,cell permeability,[4],highly cell permeable
